In US12122761B2, “2-azaspiro[3.4]octane derivatives as M4 agonists” (NOVARTIS AG, priority 2019, dated 2024):

How the values were obtained:
Type in all cases: cell-based
[1] = molecular target: T1, human cloned CHRM4 receptor (M4_CHO cells) (Homo sapiens, UniProt P08173); assay: CHRM4 Ca++ Flux Assay (agonist mode, FDSS 7000EX); conditions: for M4 FDSS PA: Percent Activity; for EC50: geometric mean if tested more than once, read-out: M4 FDSS EC50
T1 construct: expressed in transfected cells; host or cells: CHO-K1
T1 sequence (P08173 1-479): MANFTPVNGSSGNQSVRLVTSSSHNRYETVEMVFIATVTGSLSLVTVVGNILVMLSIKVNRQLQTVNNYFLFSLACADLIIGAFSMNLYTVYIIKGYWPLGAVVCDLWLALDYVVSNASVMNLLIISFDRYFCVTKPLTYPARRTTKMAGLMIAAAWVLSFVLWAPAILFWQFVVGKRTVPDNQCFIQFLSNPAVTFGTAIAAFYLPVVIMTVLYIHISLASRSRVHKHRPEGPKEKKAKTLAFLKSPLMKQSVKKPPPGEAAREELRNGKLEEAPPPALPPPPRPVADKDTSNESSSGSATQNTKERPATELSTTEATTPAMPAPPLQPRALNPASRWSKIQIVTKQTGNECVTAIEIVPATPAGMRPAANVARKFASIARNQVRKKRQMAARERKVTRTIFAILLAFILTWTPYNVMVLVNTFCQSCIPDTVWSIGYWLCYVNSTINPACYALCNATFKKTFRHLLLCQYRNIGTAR
Description: The above examples were characterized by measuring the intracellular mobilization of Ca++ ions caused by signaling events mediated by the receptor. The Intra-cellular Calcium flux levels were captured by the highly sensitive Ca++ indicator, Calcium Assay Kit (BD Biosciences, Catalog Number 640178). The fluorescent activity from all receptors were monitored by the fluorescent imager, FDSS 7000EX (Hamamatsu) over a span of 3 minutes.
CHO-K1 cells stably expressing the human cloned CHRM4 receptor (M4_CHO cells) were grown and maintained in a monolayer culture with F12/HAM (Life Technologies) supplemented with 10% Fetal Bovine Serum, 1× Pen-Strep, and 0.4 mg/mL Geneticin in a humidified atmosphere (5% CO2) at 37° C. The cultures were grown to 80-90% confluency in T150 flasks (Corning) and washed with 1×DPBS then lifted with 0.05% Trypsin (Life Technologies). The cells were harvested in growth media then spun (1K rpm, 3 minutes) and cryopreserved using Recovery Cell Culture Freezing Media (Gibco Technologies). Cells were stored in liquid nitrogen and thawed a day before the assay.
Prior to the day of the assay, stable M4_CHO cells were thawed and plated on 384 well black walled clear bottom TC treated plates (Greiner Cat #781091) at 12K cells/well using F12/HAM Media supplemented with 10% FBS (Life Technologies) and kept overnight in a humidified atmosphere (5% CO2) at 37° C. The next day, cells were loaded with […] Ca^++ dye (BD Biosciences) using Loading Buffer (HBSS +Ca/+Mg, 20 mM HEPES, 2.5 mM Probenecid) and placed back in cell incubator for a minimum of 1 hour. After incubation, the dye was replaced with 45 μL Assay Buffer (HBSS −Ca/−Mg, 20 mM HEPES, 2.5 mM Probenecid) supplemented with 20 μM ATP (Sigma Aldrich) and kept at room temperature in the dark for 60 minutes before running on a cell imager. The FDSS 7000EX (Hamamatsu) was used to capture Ca^++ traces for a span of 3 minutes from cells treated with 11 point dose of compound in triplicate in order to generate dose response curves in agonist mode. All compounds were serially diluted in DMSO then prepared in Assay Buffer for Ca^++ flux studies. The dose response curves were generated from the average of triplicate wells obtained from each data point and used a non-linear regression of four parameter dose response algorithm. The Percent Activity (PA) was measured to EC100 of Carbachol.

[2] = molecular target: T2, human cloned CHRM3 receptor (M3_CHO cells) (Homo sapiens, UniProt P20309); assay: CHRM3 Ca++ Flux Assay (agonist mode, FDSS 7000EX); conditions: for M3 FDSS PA: Percent Activity measured to EC100 of Carbachol; for EC50: agonist mode, geometric mean if tested more than once, read-out: M3 FDSS EC50
T2 construct: expressed in transfected cells; host or cells: CHO-K1
Method in brief: (§1)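 Agonist responses are measured as calcium mobilization in CHO-K1 cells expressing human M3 or M5, tested over an 11-point dose range in triplicate. Percent activity is normalised to carbachol at EC100.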

[3] = molecular target: T3, human cloned CHRM5 receptor (M5_CHO) (Homo sapiens, UniProt P08912); assay: CHRM5 Ca++ Flux Assay (agonist mode, FDSS 7000EX); conditions: for M5 FDSS PA: Percent Activity measured to EC100 of Carbachol; for EC50: agonist mode, geometric mean if tested more than once, read-out: M5 FDSS EC50
T3 construct: expressed in transfected cells; host or cells: CHO (M5_CHO)
T3 sequence (P08912 1-532): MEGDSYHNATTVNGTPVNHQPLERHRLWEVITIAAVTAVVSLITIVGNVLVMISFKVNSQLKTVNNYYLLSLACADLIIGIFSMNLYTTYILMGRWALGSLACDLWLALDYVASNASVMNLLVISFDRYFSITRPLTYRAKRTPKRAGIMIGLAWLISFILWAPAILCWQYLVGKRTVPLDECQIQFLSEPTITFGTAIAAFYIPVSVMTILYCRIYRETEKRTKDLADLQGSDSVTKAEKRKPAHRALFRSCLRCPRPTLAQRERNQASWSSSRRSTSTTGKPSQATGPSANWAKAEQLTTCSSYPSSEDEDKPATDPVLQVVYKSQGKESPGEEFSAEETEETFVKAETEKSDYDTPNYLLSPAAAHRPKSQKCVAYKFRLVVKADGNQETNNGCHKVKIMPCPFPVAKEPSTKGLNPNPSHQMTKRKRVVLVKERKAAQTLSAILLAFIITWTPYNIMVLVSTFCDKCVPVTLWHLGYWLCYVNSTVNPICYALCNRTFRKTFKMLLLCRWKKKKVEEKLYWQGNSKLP
Method in brief: as §1

T2 sequence (P20309 whole entry): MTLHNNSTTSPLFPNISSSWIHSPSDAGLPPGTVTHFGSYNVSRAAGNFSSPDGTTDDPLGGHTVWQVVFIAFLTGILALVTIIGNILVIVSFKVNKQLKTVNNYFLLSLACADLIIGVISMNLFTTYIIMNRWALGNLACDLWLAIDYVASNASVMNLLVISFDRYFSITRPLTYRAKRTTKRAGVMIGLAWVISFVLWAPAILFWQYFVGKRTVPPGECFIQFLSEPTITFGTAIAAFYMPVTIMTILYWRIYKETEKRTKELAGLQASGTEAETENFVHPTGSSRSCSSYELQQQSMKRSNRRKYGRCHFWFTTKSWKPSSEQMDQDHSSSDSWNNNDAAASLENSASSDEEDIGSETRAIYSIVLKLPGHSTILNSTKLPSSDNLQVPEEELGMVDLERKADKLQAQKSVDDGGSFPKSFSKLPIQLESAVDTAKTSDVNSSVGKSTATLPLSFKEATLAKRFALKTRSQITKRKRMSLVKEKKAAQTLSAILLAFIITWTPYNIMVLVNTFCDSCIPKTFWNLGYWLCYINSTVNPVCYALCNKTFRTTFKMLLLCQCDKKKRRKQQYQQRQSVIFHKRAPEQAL

| SMILES | M4 FDSS PA [1] | EC50 [1] | M3 FDSS PA [2] | EC50 [2] | M5 FDSS PA [3] | EC50 [3] |
| --- | --- | --- | --- | --- | --- | --- |
| Cc1noc(C)c1COc1ccccc1C1CCN([C@@H]2CCC3(C2)CN(C(=O)C2(F)CC2)C3)CC1 (single isomer, unassigned) [Example 7U, (R)-(6-(4-(2-((3,5-dimethylisoxazol-4-yl)methoxy)phenyl)piperidin-1-yl)-2-azaspiro[3.4]octan-2-yl)(1-fluorocyclopropyl)methanone or (S)-(6-(4-(2-((3,5-dimethylisoxazol-4-yl)methoxy)phenyl)piperidin-1-yl)-2-azaspiro[3.4]octan-2-yl)(1-fluorocyclopropyl)methanone] | 1% | > 25 µM | 0% | > 25 µM | 0% | > 25 µM |
| Cc1ncc(COc2ccccc2C2CCN([C@@H]3CCC4(C3)CN(C(=O)C3(F)CC3)C4)CC2)o1 (single isomer, unassigned) [Example 7V, (R)-(1-fluorocyclopropyl)(6-(4-(2-((2-methyloxazol-5-yl)methoxy)phenyl)piperidin-1-yl)-2-azaspiro[3.4]octan-2-yl)methanone or (S)-(1-fluorocyclopropyl)(6-(4-(2-((2-methyloxazol-5-yl)methoxy)phenyl)piperidin-1-yl)-2-azaspiro[3.4]octan-2-yl)methanone] | 23% | 0.353 µM | 0% | > 25 µM | 0% | > 25 µM |
| Cc1nnc(COc2ccccc2C2CCN([C@@H]3CCC4(C3)CN(C(=O)C3(F)CC3)C4)CC2)o1 (single isomer, unassigned) [Example 7W, (R)-(1-fluorocyclopropyl)(6-(4-(2-((5-methyl-1,3,4-oxadiazol-2-yl)methoxy)phenyl)piperidin-1-yl)-2-azaspiro[3.4]octan-2-yl)methanone or (S)-(1-fluorocyclopropyl)(6-(4-(2-((5-methyl-1,3,4-oxadiazol-2-yl)methoxy)phenyl)piperidin-1-yl)-2-azaspiro[3.4]octan-2-yl)methanone] | 67% | < 0.0004 µM | 0% | > 25 µM | 8% | 0.077 µM |
| Cc1nc(COc2ccccc2C2CCN([C@@H]3CCC4(C3)CN(C(=O)C3(F)CC3)C4)CC2)no1 (single isomer, unassigned) [Example 7X, (R)-(1-fluorocyclopropyl)(6-(4-(2-((5-methyl-1,2,4-oxadiazol-3-yl)methoxy)phenyl)piperidin-1-yl)-2-azaspiro[3.4]octan-2-yl)methanone or (S)-(1-fluorocyclopropyl)(6-(4-(2-((5-methyl-1,2,4-oxadiazol-3-yl)methoxy)phenyl)piperidin-1-yl)-2-azaspiro[3.4]octan-2-yl)methanone] | 66% | < 0.0004 µM | 0% | > 25 µM | 9% | 0.071 µM |
| COc1ccc(Cl)cc1C1CCN([C@H]2CCC3(C2)CN(C(=O)C2(F)CC2)C3)CC1 (single isomer, unassigned) [Example 8A, (S)-(6-(4-(5-chloro-2-methoxyphenyl)piperidin-1-yl)-2-azaspiro[3.4]octan-2-yl)(1-fluorocyclopropyl)methanone or (R)-(6-(4-(5-chloro-2-methoxyphenyl)piperidin-1-yl)-2-azaspiro[3.4]octan-2-yl)(1-fluorocyclopropyl)methanone] | 43% | 0.036 µM | 0% | > 25 µM | 0% | > 25 µM |
| COc1ccc(Cl)cc1C1CCN([C@H]2CCC3(C2)CN(C(=O)C2(F)CC2)C3)CC1 (single isomer, unassigned) [Example 8B, (S)-(6-(4-(5-chloro-2-methoxyphenyl)piperidin-1-yl)-2-azaspiro[3.4]octan-2-yl)(1-fluorocyclopropyl)methanone or (R)-(6-(4-(5-chloro-2-methoxyphenyl)piperidin-1-yl)-2-azaspiro[3.4]octan-2-yl)(1-fluorocyclopropyl)methanone] | 64% | 0.001 µM | 0% | > 25 µM | 0% | > 25 µM |

The next lines start with the values.

| M4 FDSS PA [1] | EC50 [1] | M3 FDSS PA [2] | EC50 [2] | M5 FDSS PA [3] | EC50 [3] | SMILES |
| --- | --- | --- | --- | --- | --- | --- |
| 5% | 12.1 µM | 0% | > 25 µM | 0% | > 25 µM | O=C(N1CC2(CC[C@@H](N3CCC(c4ccccc4OCC4CC4)CC3)C2)C1)C1(F)CC1 (single isomer, unassigned) [Example 7T, (R)-(6-(4-(2-(cyclopropylmethoxy)phenyl)piperidin-1-yl)-2-azaspiro[3.4]octan-2-yl)(1-fluorocyclopropyl)methanone or (R)-(6-(4-(2-(cyclopropylmethoxy)phenyl)piperidin-1-yl)-2-azaspiro[3.4]octan-2-yl)(1-fluorocyclopropyl)methanone] |
| 49% | 0.022 µM | 0% | > 25 µM | 0% | > 25 µM | Cc1nnc(COc2ccccc2C2CCN([C@@H]3CCC4(C3)CN(C(=O)C3(F)CC3)C4)CC2)o1 (single isomer, unassigned) [Example 7Y, (R)-(1-fluorocyclopropyl)(6-(4-(2-((5-methyl-1,3,4-oxadiazol-2-yl)methoxy)phenyl)piperidin-1-yl)-2-azaspiro[3.4]octan-2-yl)methanone or (S)-(1-fluorocyclopropyl)(6-(4-(2-((5-methyl-1,3,4-oxadiazol-2-yl)methoxy)phenyl)piperidin-1-yl)-2-azaspiro[3.4]octan-2-yl)methanone] |
| 50% | 0.009 µM | 0% | > 25 µM | 0% | > 25 µM | Cc1nc(COc2ccccc2C2CCN([C@@H]3CCC4(C3)CN(C(=O)C3(F)CC3)C4)CC2)no1 (single isomer, unassigned) [Example 7Z, (R)-(1-fluorocyclopropyl)(6-(4-(2-((5-methyl-1,2,4-oxadiazol-3-yl)methoxy)phenyl)piperidin-1-yl)-2-azaspiro[3.4]octan-2-yl)methanone or (S)-(1-fluorocyclopropyl)(6-(4-(2-((5-methyl-1,2,4-oxadiazol-3-yl)methoxy)phenyl)piperidin-1-yl)-2-azaspiro[3.4]octan-2-yl)methanone] |
